The test system of this test is CEM cells HIV-1 protection, formazan growth assay. The experiment in a line: NCI AIDS Antiviral Assay. The note with it: for IC50: measured here: growth of uninfected CEM cells. An outline of the steps:
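Human CEM cells, uninfected and HIV-1-infected, exposed to five drug concentrations; growth measured by soluble formazan assay and scored as percent protection from infection, with protecting compounds retested.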

Calls of active or inactive are those of the source.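 The calls were made as follows: active = compounds giving half or more protection of infected cells from virus-caused growth loss, again on retest; inactive = the rest.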

By EC50 is commonly meant the concentration at which the effect is half-maximal. Usually IC50 stands for the concentration that gives 50% inhibition. Low values mean greater potency, high ones weaker potency. In the case of `CN(C)CCN1C(=O)CC(c2ccccc2)Sc2ccccc21` (stereo not given), the EC50 was greater than 245 µM and the half-inhibitory concentration (IC50) was greater than 245 µM.
On to `CC(C)N(C(=O)C12CC3CC(CC(C3)C1)C2)C(C)C`, for which the EC50 was greater than 135 µM and the IC50 was determined as 41.7 µM.
As for `Cc1c(CCOC=O)c(=O)[nH]c2nncn12`, the EC50 is 14.1 µM and the IC50 is greater than 200 µM.
Taken in the same sequence, the figures for `CCN(CC)CCCNC(=O)Cc1ccccc1Nc1c(Cl)cccc1Cl` were greater than 200 µM and 16.6 µM.
Taken in the same sequence, the figures for `O=C(Nc1ccn(C2CCC(COC(c3ccccc3)(c3ccccc3)c3ccccc3)O2)c(=O)n1)c1ccccc1` (stereo not given) were greater than 200 µM and 9.77 µM.
Taken in the same sequence, the figures for `Cc1cc(OCC(O)CO)ccc1-c1ccccc1` (stereo not given) were greater than 977 µM and 295 µM.
Take `COc1ccc2c(c1)CCCN1Cc3cc(OC)c(OC)cc3CC21` (stereo not given): the EC50 is greater than 200 µM and the 50% inhibitory concentration (IC50) turned out to be 87.1 µM.
For `O=C1Nc2cnc(Cl)nc2Nc2ccc(Cl)cc21`, the EC50 was 123 µM and the IC50 is greater than 200 µM.
Turning to `CCCCn1cnc2c(SSc3ncnc4c3ncn4CCCC)ncnc21`, the EC50 is greater than 200 µM and the IC50 turned out to be 10.7 µM.
On to `[C-]#[O+].[C-]#[O+].[C-]#[O+].[C-]#[O+].[Mo].c1ccc(P(CCP(CCP(c2ccccc2)c2ccccc2)c2ccccc2)CCP(c2ccccc2)c2ccccc2)cc1` (stereo not given), for which the EC50 is greater than 0.617 µM and the IC50 was greater than 0.617 µM.
For the compound `c1ccc(CN(Cc2ccccn2)Cc2ccccn2)nc1`, the EC50 was greater than 200 µM and the IC50 worked out at 3.16 µM.
Consider `COC[C@H](Cc1ccccc1)N=Cc1ccccc1`, for which the EC50 is greater than 200 µM and the IC50 is greater than 200 µM.
Regarding `CSC1NNC2(C(=O)N1)c1ccccc1-c1ccccc12` (stereo not given), the EC50 was greater than 200 µM and the concentration for half-maximal inhibition (IC50) came out at 26.9 µM.
Regarding `CC(C)C(N)S(=O)(=O)O` (stereo not given), the EC50 is greater than 200 µM and the IC50 is greater than 200 µM.
As to `CC(C)(C)C(=O)/C=C/c1ccccc1Cl`, the EC50 is greater than 23.4 µM and the IC50 is greater than 23.4 µM.
Consider `O=C1C(=Cc2ccc(Cl)c(Cl)c2)C([O-])=C([P+](c2ccccc2)(c2ccccc2)c2ccccc2)C([O-])=C1[P+](c1ccccc1)(c1ccccc1)c1ccccc1`, for which the EC50 was greater than 100 µM and the IC50 turned out to be 1.23 µM.
Regarding `CC(C)(Sc1cc(C(C)(C)C)c(O)c(C(C)(C)C)c1)Sc1cc(C(C)(C)C)c(O)c(C(C)(C)C)c1`, the EC50 was greater than 26.3 µM and the IC50 is greater than 26.3 µM.
On to `N#C/C(=C\c1cccc(C#N)c1)c1ccccc1`, for which the EC50 is greater than 31.6 µM and the 50% inhibitory concentration (IC50) was greater than 31.6 µM.
`COC(=O)N/N=C(/Cc1occc(=O)c1O)C(=O)Nc1ccc([N+](=O)[O-])cc1[N+](=O)[O-]`: the EC50 was greater than 575 µM and the IC50 was greater than 575 µM.
`CC(C)(C)[Si](C)(C)OCC1OC(n2ccc(=O)[nH]c2=O)C(O[Si](C)(C)C(C)(C)C)C1(O)C/C=N/O` (stereo not given): the EC50 is greater than 200 µM and the IC50 is 7.59 µM.
Consider `CCCCCCCCCCCCCCCC/C(C(=O)OC)=C(/O)C(=O)OCC`, for which the EC50 was greater than 8.51 µM and the IC50 is greater than 8.51 µM.
In the case of `O=C(NO)c1ccc(O)c(O)c1`, the EC50 was greater than 1480 µM and the IC50 was 74.1 µM.
Turning to `CC1OC(Oc2c(-c3cc(O)c(O)c(O)c3)oc3cc(O)cc(O)c3c2=O)C(O)C(O)C1O` (stereo not given), the result was inactive.
`O=CC(NC(=O)N(CCCl)N=O)C(O)C(O)C(O)CO` (stereo not given): the EC50 is greater than 398 µM and the IC50 was greater than 398 µM.
`CCOC(=O)C(NC(=O)CC(C)C)(Nc1ccc(C(F)(F)F)cc1)C(F)(F)F` (stereo not given): the EC50 is greater than 200 µM and the concentration for half-maximal inhibition (IC50) is 56.2 µM.
`CCCC(=O)OCC1(Cl)CCC2c3c(c4ccccc4n3C)CC1N2Cc1ccccc1` (stereo not given): the EC50 is greater than 11.5 µM and the half-inhibitory concentration (IC50) turned out to be 6.92 µM.
Take `CC1CN=C(c2ccc(NC(=O)c3ccc(C(=O)Nc4ccc(C5=NCC(C)CN5)cc4)cc3)cc2)NC1` (stereo not given): the EC50 is greater than 200 µM and the IC50 stood at 25.1 µM.
For `Cc1ccc(C2(O)CC(c3ccc([N+](=O)[O-])o3)=NN2C(=O)COc2ccccc2Cl)cc1` (stereo not given), the EC50 is greater than 1.66 µM and the IC50 is greater than 1.66 µM.

Values taken from PubChem BioAssay AID179 (DTP/NCI, 2004).
